Reference: patent EP4608400B1, “COMPOUND FOR TREATMENT OF PAIN” (Initiator Pharma A/S, priority 2022, dated 2024)
Where a name gives a salt, the structure may show the parent alone.

Key:
[1] = molecular target: T1, dopamine (DA) reuptake in synaptosomes (Rattus norvegicus, UniProt P23977); conditions: hydrochloride; reported in US 9,133,184 B1; cited from earlier work
T1 construct: in synaptosomes as described in WO 97/16451 (NeuroSearch A/S); from tissue

[2] = molecular target: T2, noradrenaline (NA) reuptake in synaptosomes (Rattus norvegicus, UniProt Q63380); conditions: hydrochloride; reported in US 9,133,184 B1; cited from earlier work
T2 construct: in synaptosomes as described in WO 97/16451 (NeuroSearch A/S); from tissue
T2 sequence (Q63380 1-617): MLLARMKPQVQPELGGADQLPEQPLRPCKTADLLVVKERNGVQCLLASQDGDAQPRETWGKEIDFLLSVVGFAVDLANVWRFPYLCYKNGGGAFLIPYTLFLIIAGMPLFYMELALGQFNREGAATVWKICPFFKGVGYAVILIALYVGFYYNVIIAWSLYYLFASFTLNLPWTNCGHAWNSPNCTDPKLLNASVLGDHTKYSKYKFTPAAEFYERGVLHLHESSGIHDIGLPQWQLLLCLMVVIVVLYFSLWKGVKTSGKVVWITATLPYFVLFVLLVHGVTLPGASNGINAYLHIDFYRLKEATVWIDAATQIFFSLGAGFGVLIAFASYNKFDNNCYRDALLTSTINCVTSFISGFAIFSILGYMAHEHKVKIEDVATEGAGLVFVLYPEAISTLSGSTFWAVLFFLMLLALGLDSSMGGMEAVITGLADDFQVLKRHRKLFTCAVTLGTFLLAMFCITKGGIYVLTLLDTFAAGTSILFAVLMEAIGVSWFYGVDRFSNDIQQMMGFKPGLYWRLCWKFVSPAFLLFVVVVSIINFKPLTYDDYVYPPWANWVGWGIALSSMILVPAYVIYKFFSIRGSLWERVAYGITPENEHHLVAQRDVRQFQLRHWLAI

[3] = test system: intradermal capsaicin model; assay: Phase I crossover study, intradermal capsaicin model: pharmacodynamics; format: in vivo, human
Source text: Participants. The volunteers were males aged 18 to 55 years with a body mass index (BMI) of 18 to 30 kg/m2. They were healthy as determined by a responsible physician, based on a medical evaluation including medical history, physical examination, concomitant medication, vital signs, 12-lead ECG, and clinical laboratory evaluations. The participants must have been in good general health with a skin type compatible with the measures and without significant skin allergies, pigmentary disorders or any active dermatological conditions. […] The participants provided written informed consent, which included compliance with the requirements and restrictions listed in the consent form, including the use of a condom during the trial and for 3 months after their final dose of trial medication, if their partner was a woman of childbearing potential.
Clinical and laboratory data. Prior to and 15, 30, 60, 90 and 120 minutes after administration of capsaicin, measurements of pain, hyperalgesia, allodynia and AF were performed. At 2 hours post-capsaicin injection, subjects completed a quantitative sensory testing (QST) battery at two sites on the volar surface of each forearm. One site was the most recent capsaicin injection site, and the other was at an equivalent point on the opposite forearm. […] There was a minimum washout period of 5 days between treatment periods.
Reconstitution was performed by a Pharmacist at the clinical site prior to dosing.
(§1) In order to maintain the blind, a double dummy approach was used.
Subjects were randomised to receive a single administration of a treatment combination during each treatment period. All subjects received each treatment combination once only.
Evaluation methods: Pharmacodynamics was assessed through pain measurements (response to ID injection of capsaicin, measurement of pain using a visual analogue scale, area and pain score of hyperalgesia, area and pain score of allodynia, and AF) and the ID capsaicin model. Subjects also completed a QST battery at two sites on the volar surface of either forearm. The QST battery included the following tests: thermal detection and pain thresholds, mechanical detection and pain thresholds, stimulus/response functions, wind-up ratio and pressure pain threshold.
For measurement of pain, a visual analogue scale (VAS) was used. The VAS consisted of a 100 mm line, with 0 representing "no pain" and 100 representing "worst pain imaginable". Subjects were asked to mark the VAS using a single vertical stroke at the point they considered to appropriately reflect their level of pain from the injection of capsaicin (not general pain). A new VAS was provided for each time point and subjects were not allowed to see their previous VAS responses. The VAS was scored by measuring from the left-hand end of the scale to the point where the subject had marked the line, and the distance in mm was recorded.
Response to pain was also assessed by a numeric rating scale (NRS). For example, by using an 11-point numeric rating scale ranging from 0 ("no pain") to 10 ("worst possible pain") and asking the subject to rate their pain. A NRS scale of 0 to 100 was also used in some assesments.
The thermal tests were performed using a thermode probe (Medoc). Cold and warm detection thresholds were measured first, then cold pain and heat pain thresholds were determined. The mean threshold temperature of 3 consecutive measurements was calculated. All thresholds were obtained with ramped stimuli (1°C/sec) that were terminated when the subject pressed a button. For thermal detection thresholds the ramp back to baseline was 1°C/sec, while for thermal pain thresholds this ramp was chosen at maximum device capacity resulting in approximately a nominal 5°C/sec.
The mechanical detection threshold was measured with a standardised set of modified von Frey nylons that exerted forces upon bending between 0.25 and 512 mN graded by a factor of 2 (1 to 2 seconds contact time). […]

[4] = Phase I crossover study, intradermal capsaicin model: safety evaluation (TEAEs); format: in vivo, human; conditions: 300 mg pregabalin
Experimental: as §1
Safety was assessed through AE reporting, 12-lead ECG, vital signs, physical examinations and clinical laboratory evaluations. Pharmacokinetics was assessed by blood sampling.

T1 sequence (P23977 whole entry): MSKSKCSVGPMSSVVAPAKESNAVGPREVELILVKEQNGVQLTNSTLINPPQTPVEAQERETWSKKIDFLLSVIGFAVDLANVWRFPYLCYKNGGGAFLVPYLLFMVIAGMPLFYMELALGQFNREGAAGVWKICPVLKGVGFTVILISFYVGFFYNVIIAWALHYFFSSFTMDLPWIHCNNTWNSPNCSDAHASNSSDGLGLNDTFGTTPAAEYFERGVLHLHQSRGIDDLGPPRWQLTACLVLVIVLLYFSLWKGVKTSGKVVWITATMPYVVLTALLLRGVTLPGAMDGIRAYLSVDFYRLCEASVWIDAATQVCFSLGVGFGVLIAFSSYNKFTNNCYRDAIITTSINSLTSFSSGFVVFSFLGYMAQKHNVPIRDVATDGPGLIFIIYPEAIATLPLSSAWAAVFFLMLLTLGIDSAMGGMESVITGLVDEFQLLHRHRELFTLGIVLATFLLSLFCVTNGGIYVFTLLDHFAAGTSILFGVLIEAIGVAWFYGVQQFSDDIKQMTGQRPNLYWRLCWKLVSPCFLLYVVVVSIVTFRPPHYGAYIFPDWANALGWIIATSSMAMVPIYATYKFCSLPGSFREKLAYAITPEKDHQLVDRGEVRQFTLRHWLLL

Structure (SMILES) | IC50 [1] | IC50 [2] | adjusted mean pain score of hyperalgesia compared to placebo ([3]; 5 mg and 10 mg IP2015, 300 mg pregabalin, all post-capsaicin injection timepoints) | average decrease in hyperalgesic area across all timepoints compared to placebo ([3]; 300 mg pregabalin) | Pain Score of Brush-evoked Allodynia Using an NRS, Adjusted Mean (MMRM) ([3]; 300 mg pregabalin capsule, overall, all timepoints, N=24, placebo 2.0) | Subjective Rating of Pain, Adjusted Mean (MMRM) ([3]; 300 mg pregabalin capsule, overall, all timepoints, N=24, placebo 17.1) | decrease of subjective rating of pain compared to placebo ([3]; 300 mg pregabalin, 15 min post capsaicin) | decrease of subjective rating of pain compared to placebo ([3]; 300 mg pregabalin, 30 min post capsaicin) | decrease of subjective rating of pain compared to placebo ([3]; 300 mg pregabalin, 60 min post capsaicin) | overall increase in warm detection threshold between test and control areas (QST) ([3]; 300 mg pregabalin, p = 0.063, post-hoc analysis) | incidence of TEAEs (share of subjects) [4] | moderate TEAE dizziness [4] | moderate TEAE mood altered [4] | number of TEAEs reported [4] | subjects reporting TEAEs [4]
COc1cc2ccc(O[C@@H]3C[C@H]4CC[C@@H](C3)N4)cc2oc1=O [compound of formula (I) hydrochloride, exo-7-[(8-azabicyclo[3.2.1]octan-3-yl)oxy]-3-methoxy-chromen-2-one hydrochloride] | 70 nM | 3.8 nM | – | – | – | – | – | – | – | – | – | – | – | – | –
CC(C)C[C@H](CN)CC(=O)O [pregabalin, reference compound] | – | – | lower | 7.8 cm^2 | 1.5 | 14.4 mm | 1.5 mm | 3.8 mm | 4.4 mm | close to significance | 79.2% | 1 subject | 1 subject | 28 events | 19 subjects
